Source: ChEMBL document CHEMBL1150732, “Anticandidal activity of eupolauridine and onychine, alkaloids from Cleistopholis patens” (1987)
≈ marks a conversion by molar mass, not a printed value. Calls of active or inactive are those of the source. No cut-off for these calls is given here.

System: Candida albicans
Test: Antifungal activity against Candida albicans B311 after 24 to 48 hrs by twofold serial dilution method
Type: functional

Compound	MIC [µg/mL]	Activity
Cc1ccnc2c1-c1ccccc1C2=O	3.12 (≈ 16 µM)	–
Cc1ccnc2c1C(=O)c1ccccc1-2	–	Active
C[C@@H]1[C@H](O)[C@@H](C)/C=C/C=C/C=C/C=C/C=C/C=C/C=C/[C@H](O[C@@H]2O[C@H](C)[C@@H](O)[C@H](N)[C@@H]2O)C[C@@H]2O[C@](O)(C[C@@H](O)C[C@@H](O)[C@H](O)CC[C@@H](O)C[C@@H](O)CC(=O)O[C@H]1C)C[C@H](O)[C@H]2C(=O)O [AMPHOTERICIN B]	0.39 (≈ 0.422 µM)	–
c1ccc2c(c1)-c1nccc3ccnc-2c13 [EUPOLAURIDINE]	1.56 (≈ 7.64 µM)	–
